The text below walks through data of BindingDB's records for doi:10.1021/jm00043a006 (Parke-Davis Pharmaceutical Research, 1994).

The target of the test is T1, Dimer of Gag-Pol polyprotein [489-587] (Human immunodeficiency virus 1, UniProt P12497).
T1 construct: 489-587
As to the kind of experiment: Protease Inhibition Assay. Conditions: pH 4.7; 37 °C. The method, then:
For determination of IC50 values, HIV-1 protease was added to assay buffer containing inhibitor and the substrate (H-His-Lys-Ala-Arg-Val-Leu- (p-NO2) Phe-Glu-Ala-norleucine-Ser-NH2). The Leu- (p-NO2) Phe bond of the substrate was cleaved by the enzyme, and the substrate and products were separated by reversed-phase HPLC. Absorbance was measured at 220 nm, peak areas were determined, and percentage conversion to product was calculated.

For `Nc1cccc(OCCCc2c(O)c3ccccc3oc2=O)c1` [3-[3-(3-aminophenoxy)propyl]-4-hydroxy-2H-chromen-2-one], it took 6.4 µM to reach half-maximal inhibition (IC50). Compound `NC(=O)c1cccc(OCCCc2c(O)c3ccccc3oc2=O)c1` [3-[3-(4-Hydroxy-2-oxo-2H-1-benzopyran-3-yl)prpoxyl-benzamide] gave an IC50 of 3.9 µM. Against the preceding compound, the IC50 is about 1.6-fold lower. The compound `O=C(O)c1cccc(OCCCc2c(O)c3ccccc3oc2=O)c1` [3-[3-(4-hydroxy-2-oxo-2H-chromen-3-yl)propoxy]benzoic acid] returned a half-inhibitory concentration (IC50) of 7 µM. `O=c1oc2ccccc2c(O)c1CCCO` [4-Hydroxy-3-(3-hydroxypropyl)-2H-1-benzopyran-2-one] registered an IC50 of 86 µM. Compound `O=c1oc2ccccc2c(O)c1CC/C(=N/O)c1ccccc1` [4-Hydroxy-3-[3-(hydroroKyimino)-3-phenylpropyl] -2H-1-benzopyran-2-one] returned a 50% inhibitory concentration (IC50) of 71 µM.

Take `O=c1[nH]c2ccccc2c(O)c1CCCOc1ccccc1` [4-hydroxy-3-(3-phenoxypropyl)-1,2-dihydroquinolin-2-one]: the IC50 is over 200 µM.

As for `O=c1oc2ccccc2c(O)c1CCCCOc1ccccc1` [4-hydroxy-3-(4-phenoxybutyl)-2H-chromen-2-one], the half-maximal inhibitory concentration (IC50) is over 100 µM. In turn, `COc1ccccc1OCCCc1c(O)c2ccccc2oc1=O` [4-hydroxy-3-[3-(2-methoxyphenoxy)propyl]-2H-chromen-2-one] came in with a half-inhibitory concentration (IC50) of 44 µM. As for `COc1ccccc1CCCCc1c(O)c2ccccc2oc1=O` [4-hydroxy-3-[4-(2-methoxyphenyl)butyl]-2H-chromen-2-one], the IC50 was determined as 1.7 µM. Consider `COc1ccc(CCCCc2c(O)c3ccccc3oc2=O)cc1` [4-hydroxy-3-[4-(4-methoxyphenyl)butyl]-2H-chromen-2-one], for which the concentration for half-maximal inhibition (IC50) is over 100 µM. With `O=c1oc2ccccc2c(O)c1CCCOc1cccc(CO)c1` [4-hydroxy-3-{3-[3-(hydroxymethyl)phenoxy]propyl}-2H-chromen-2-one], half-maximal inhibition (IC50) was put at 2.3 µM.

For `COc1ccccc1CCCCc1c(O)c2ccc(OCc3ccccc3)cc2oc1=O` [7-(benzyloxy)-4-hydroxy-3-[4-(2-methoxyphenyl)butyl]-2H-chromen-2-one], the IC50 was over 100 µM.

`CCOC(=O)c1cccc(OCCCc2c(O)c3ccccc3oc2=O)c1` [ethyl 3-[3-(4-hydroxy-2-oxo-2H-chromen-3-yl)propoxy]benzoate] registered an IC50 of 1.4 µM. That is a single-digit micromolar value.
